“And” between values parts separate entries of the source, which are not always exact repeats. Equal values may be shown once. Read-outs that look alike come from different tables or passages of the source.
How the values were obtained:
[1] = tested on: ClC-7; parameters: method as in ref [4] of Table S1; details: Human, UniProt P51798; ref [4] of Table S1; cited from earlier work
[2] = target: PgDPP7 (Porphyromonas gingivalis, UniProt Q7MWU6); assay: Inhibition of PgDPP7 enzymatic activity on Met-Leu-MCA; format: biochemical; details: for remaining activity at 100 µM: read-out: Residual activity (%)
Chain of PgDPP7 (Q7MWU6 entry or part of it): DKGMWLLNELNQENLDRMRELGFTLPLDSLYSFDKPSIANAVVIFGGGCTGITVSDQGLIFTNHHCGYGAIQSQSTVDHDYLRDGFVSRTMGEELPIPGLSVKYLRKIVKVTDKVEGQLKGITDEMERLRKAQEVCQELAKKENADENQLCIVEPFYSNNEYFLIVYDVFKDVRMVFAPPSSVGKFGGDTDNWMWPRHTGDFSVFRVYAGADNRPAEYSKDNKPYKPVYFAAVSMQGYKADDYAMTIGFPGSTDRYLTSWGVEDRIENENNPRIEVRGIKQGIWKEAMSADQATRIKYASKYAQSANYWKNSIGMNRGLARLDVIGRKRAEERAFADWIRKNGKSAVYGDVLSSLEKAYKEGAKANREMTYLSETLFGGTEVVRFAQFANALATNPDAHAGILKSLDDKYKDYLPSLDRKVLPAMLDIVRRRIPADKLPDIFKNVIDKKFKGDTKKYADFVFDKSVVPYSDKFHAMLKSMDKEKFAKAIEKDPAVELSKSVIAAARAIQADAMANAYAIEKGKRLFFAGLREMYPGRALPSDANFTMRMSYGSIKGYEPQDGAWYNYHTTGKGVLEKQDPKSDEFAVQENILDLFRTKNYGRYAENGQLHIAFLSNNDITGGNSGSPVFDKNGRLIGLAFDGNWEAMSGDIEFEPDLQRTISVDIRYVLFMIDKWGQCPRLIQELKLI
Text: (§1) To examine whether SH-5 is a universal inhibitor of S46 peptidases or is specific for PgDPP11, we evaluated the inhibitory effects of SH-5 against PgDPP7. In addition, the inhibitory effects of SH-5 against DPP7 and DPP11 from Stenotrophomonas maltophilia (SmDPP7 and SmDPP11, respectively) were also examined as another reference set of S46 peptidases in the same organism.
(§2) Thirteen of fifteen final candidate compounds from the in silico screening described above were purchased from Namiki Shoji Co., Ltd. (Tokyo, Japan). Half-maximal inhibitory concentration (IC50) values were determined by fitting to a sigmoidal curve (4-parameter logistic curve) using ImageJ[60] Competitive inhibition rates were measured using different concentrations of each inhibitor in a reaction buffer containing 50 mM sodium phosphate buffer (pH 8.0), 5 mM EDTA and 0.005% Tween 20 at 298 K for 20 min and using 100 µM Leu-Asp-MCA (4-methylcoumaryl-7-amide) as the substrate for DPP11s. For DPP7s, 100 µM Met-Leu-MCA was used as the substrate. The concentrations of PgDPP11, PgDPP7, SmDPP11 and SmDPP7 were 1, 10, 0.5 and 5 nM, respectively. The inhibitor concentrations were 1000, 500, 250, 125, 62.5, 31.3 and 15.6 µM. Standard deviations were calculated from three independent experiments. Fluorescence intensity was measured with excitation at 355 nm and emission at 460 nm using an Infinite 200 PRO microplate reader. Inhibition constants (Ki) were calculated using the Cheng-Prusoff equation[61].

[3] = tested on: E. coli strain K12; assay: Antibacterial assay, growth of E. coli (OD 600 nm); format: cell-based; details: at the concentrations used for the inhibition of P. gingivalis growth
Experimental: (§3) The inhibitory effects of SH-5 and the lipophilic analog NPPB against growth of P. gingivalis strain W83 were evaluated by monitoring optical density at 600 nm (Fig. 6, closed squares). […] The maximal percent inhibition values for SH-5 and NPPB were 68% at 1 mM and 99% at 100 μM, respectively.
(§4) Antibacterial assays against P. gingivalis strain W83 and E. coli strain K12 were performed as previously described[62],[63]. P. gingivalis cells were cultured in anaerobic bacterium culture medium (ABCM, Eiken Chemical, Tokyo, Japan) containing 0.001% menadione under anaerobic conditions at 37 °C for 48 h. E. coli cells were grown in M9 medium with 1% glucose with shaking at 37 °C for 24 h. All compounds were dissolved in DMSO at stock concentrations of 100 mM. […] Growth of P. gingivalis and E. coli with compounds was determined as the optical density at 600 nm after incubation.

[4] = tested on: ClC-ec1; parameters: method as in PMID 23177200; details: cited from earlier work
[5] = target: T1, PgDPP11 (Porphyromonas gingivalis, UniProt B2RID1); assay: Inhibition of PgDPP11 enzymatic activity on Leu-Asp-MCA; format: biochemical; details: for Ki: Cheng-Prusoff equation; for remaining activity at 100 µM: inhibitor and synthetic substrate (Leu-Asp-MCA) 100 µM, 100% = activity without inhibitor, read-out: Residual activity (%)
T1 construct: signal peptide of DAP BIII (Pseudoxanthomonas mexicana WO24) (N, cleaved yes); made in house; host or cells: E. coli BL21 Gold(DE3), pET22b
T1 sequence (B2RID1 22-720): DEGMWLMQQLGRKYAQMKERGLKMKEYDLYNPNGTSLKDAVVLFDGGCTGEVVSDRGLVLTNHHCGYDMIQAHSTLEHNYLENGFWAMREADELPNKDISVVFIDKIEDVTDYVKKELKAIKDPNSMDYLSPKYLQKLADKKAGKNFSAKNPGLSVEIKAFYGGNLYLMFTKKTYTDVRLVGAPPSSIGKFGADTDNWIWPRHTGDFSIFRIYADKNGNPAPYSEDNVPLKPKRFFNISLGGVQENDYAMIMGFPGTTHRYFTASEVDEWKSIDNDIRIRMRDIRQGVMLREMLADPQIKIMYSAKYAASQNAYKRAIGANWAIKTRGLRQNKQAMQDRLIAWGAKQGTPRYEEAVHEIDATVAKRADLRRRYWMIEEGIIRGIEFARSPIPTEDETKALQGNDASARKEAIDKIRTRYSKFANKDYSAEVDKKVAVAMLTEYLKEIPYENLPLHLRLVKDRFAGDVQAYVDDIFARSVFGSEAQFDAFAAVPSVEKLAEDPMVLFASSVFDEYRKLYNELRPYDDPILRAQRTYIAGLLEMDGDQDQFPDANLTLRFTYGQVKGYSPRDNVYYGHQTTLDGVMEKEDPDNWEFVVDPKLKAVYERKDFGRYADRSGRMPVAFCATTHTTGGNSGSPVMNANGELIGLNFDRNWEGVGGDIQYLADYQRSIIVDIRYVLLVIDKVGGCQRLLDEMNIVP
Experimental: We evaluated the inhibitory effects of the 13 commercially available candidate compounds obtained by the in silico screening described above against the enzymatic activity of PgDPP11 on the synthetic substrate Leu-Asp-MCA (4-methylcoumaryl-7-amide) (Fig. 5). Each compound was first tested at a concentration of 100 μM.
Figure 5 Inhibitory effects of 13 candidate compounds obtained by multifilter in silico screening. […] Standard deviations were obtained from three independent experiments.
as §2

[6] = tested on: ClC-6; parameters: method as in ref [3] of Table S1; details: Human, UniProt P51797; ref [3] of Table S1; cited from earlier work
[7] = tested on: ClC-5; parameters: method as in ref [2] of Table S1; details: Mouse, UniProt Q9WVD4; ref [2] of Table S1; cited from earlier work
[8] = tested on: CFTR; parameters: method as in ref [8] of Table S1; details: Xenopus, UniProt P26363; ref [8] of Table S1; cited from earlier work
[9] = tested on: ANO-1; parameters: method as in ref [5] of Table S1; details: Mouse, UniProt Q8BHY3; ref [5] of Table S1; cited from earlier work
[10] = tested on: ANO-2; parameters: method as in ref [6] of Table S1; details: Mouse, UniProt Q8CFW1; ref [6] of Table S1; cited from earlier work
[11] = target: SmDPP11 (Stenotrophomonas maltophilia, UniProt B4SNQ8); assay: Inhibition of SmDPP11 enzymatic activity on Leu-Asp-MCA; format: biochemical; details: for Ki / remaining activity at 100 µM: SmDPP11; for Ki: Cheng-Prusoff equation, 100 µM Leu-Asp-MCA; for remaining activity at 100 µM: inhibitor and synthetic substrate (Leu-Asp-MCA) 100 µM, 100% = activity without inhibitor, read-out: Residual activity (%)
Chain of SmDPP11 (B4SNQ8 24-715 limits assumed): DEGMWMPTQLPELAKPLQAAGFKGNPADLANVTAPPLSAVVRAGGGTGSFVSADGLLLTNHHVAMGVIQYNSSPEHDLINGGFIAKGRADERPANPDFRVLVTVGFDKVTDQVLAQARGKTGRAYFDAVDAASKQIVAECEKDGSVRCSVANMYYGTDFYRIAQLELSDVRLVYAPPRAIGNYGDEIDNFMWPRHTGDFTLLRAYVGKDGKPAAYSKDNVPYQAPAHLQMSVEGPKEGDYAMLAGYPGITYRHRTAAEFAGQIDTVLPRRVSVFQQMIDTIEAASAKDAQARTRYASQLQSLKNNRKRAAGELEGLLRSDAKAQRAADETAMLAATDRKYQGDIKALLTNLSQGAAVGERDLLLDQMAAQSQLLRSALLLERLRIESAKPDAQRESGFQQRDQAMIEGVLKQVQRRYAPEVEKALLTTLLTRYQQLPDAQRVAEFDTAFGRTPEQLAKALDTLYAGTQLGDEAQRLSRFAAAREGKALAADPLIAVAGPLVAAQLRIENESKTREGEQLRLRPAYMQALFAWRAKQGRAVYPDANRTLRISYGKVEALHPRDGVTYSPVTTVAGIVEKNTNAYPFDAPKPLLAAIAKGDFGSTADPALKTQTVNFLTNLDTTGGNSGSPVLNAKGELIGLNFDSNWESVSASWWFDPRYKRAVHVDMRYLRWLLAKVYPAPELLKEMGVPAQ
Text: as §1, §2

[12] = tested on: BEST-1; parameters: method as in ref [7] of Table S1; details: Mouse, UniProt O88870; ref [7] of Table S1; cited from earlier work
[13] = target: SmDPP7 (Stenotrophomonas maltophilia, UniProt B4SLK2); assay: Inhibition of SmDPP7 enzymatic activity on Met-Leu-MCA; format: biochemical; details: for remaining activity at 100 µM: read-out: Residual activity (%)
Chain of SmDPP7 (B4SLK2 entry or part of it): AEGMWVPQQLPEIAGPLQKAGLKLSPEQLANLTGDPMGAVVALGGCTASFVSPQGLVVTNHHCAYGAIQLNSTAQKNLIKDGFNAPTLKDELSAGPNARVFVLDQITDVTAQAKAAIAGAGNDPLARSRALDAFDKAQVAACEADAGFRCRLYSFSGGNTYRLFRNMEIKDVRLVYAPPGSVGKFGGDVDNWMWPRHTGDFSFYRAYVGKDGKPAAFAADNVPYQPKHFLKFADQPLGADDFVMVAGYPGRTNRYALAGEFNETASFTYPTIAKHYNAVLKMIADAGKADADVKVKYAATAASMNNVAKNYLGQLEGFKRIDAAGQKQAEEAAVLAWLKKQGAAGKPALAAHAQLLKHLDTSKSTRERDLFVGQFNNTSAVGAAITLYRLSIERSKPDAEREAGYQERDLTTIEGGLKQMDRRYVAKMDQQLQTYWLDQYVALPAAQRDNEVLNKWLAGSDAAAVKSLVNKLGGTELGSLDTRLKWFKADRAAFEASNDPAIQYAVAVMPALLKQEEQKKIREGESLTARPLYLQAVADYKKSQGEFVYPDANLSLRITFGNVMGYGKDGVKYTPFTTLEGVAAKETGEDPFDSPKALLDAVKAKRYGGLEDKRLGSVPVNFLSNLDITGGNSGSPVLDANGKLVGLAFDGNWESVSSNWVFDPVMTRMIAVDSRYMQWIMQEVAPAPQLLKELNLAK
Text: as §1, §2

[14] = tested on: P. gingivalis strain W83; assay: Antibacterial assay, growth of P. gingivalis (OD 600 nm); format: cell-based; details: Porphyromonas gingivalis; for IC50: strain W83, optical density at 600 nm, 48 h anaerobic, read-out: IC50, inhibition of growth of P. gingivalis
Experimental: as §3, §4

[15] = tested on: ClC-2; parameters: method as in ref [1] of Table S1; details: Rat, UniProt P35525; ref [1] of Table S1; cited from earlier work

Row | SMILES | inhibitory effect against PgDPP7 (in words) [2] | toxicity toward E. coli (growth) [3] | inhibitory effect against PgDPP11 (in words) [5] | Ki ([5]; PgDPP11, 100 µM Leu-Asp-MCA) | remaining activity at 100 µM ([5]; PgDPP11) [%] | inhibitory effect against SmDPP11 (in words) [11] | Ki [11] [µM] | remaining activity at 100 µM [11] [%] | inhibitory effect against SmDPP7 (in words) [13] | IC50 [14] [µM] | further results
1 | O=C(O)c1cc([N+](=O)[O-])ccc1NCCCc1ccccc1 [NPPB, 5-nitro-2-(3-phenylpropylamino)benzoic acid] | inactive | not toxic | significant inhibitory effects | ~15 µM and 15 µM | 70.3 ± 0.7 | significant inhibitory effects | 84.8 ± 3.1 | 67.7 ± 0.6 | inactive | 6 | inhibition of ClC-7 [1]: inhibited; remaining activity at 100 µM [2]: 159 ± 5%; inhibition of ClC-ec1 protein [4]: not be inhibited; inhibition of ClC-6 [6]: inhibited; inhibition of ClC-5 [7]: inhibited; inhibition of CFTR [8]: inhibited; inhibition of ANO-1 [9]: inhibited; inhibition of ANO-2 [10]: inhibited; inhibition of BEST-1 [12]: inhibited; remaining activity at 100 µM [13]: 119 ± 0.3%; inhibition at 100 µM ([14]; P. gingivalis W83, at 100 μM, read-out: maximal percent inhibition of growth): 99%; inhibition of ClC-2 [15]: inhibited
2 | NCCNc1ccc([N+](=O)[O-])cc1C(=O)O [SH-5, 2-[(2-aminoethyl)amino]-5-nitrobenzoic acid] | significant inhibitory effects | not toxic | significant inhibitory effects | ~8.45 µM and 8.45 µM | 62.9 ± 0.1 | significant inhibitory effects | 24.9 ± 0.5 | 48 ± 1.1 | significant inhibitory effects | 687 | Ki ([2]; PgDPP7, Cheng-Prusoff equation, 100 µM Met-Leu-MCA): 52.2 ± 3.3 µM; remaining activity at 100 µM ([2]; PgDPP7, inhibitor and synthetic substrate (Met-Leu-MCA) 100 µM, 100% = activity without inhibitor): 54.4 ± 0.7%; inhibition at 100 µM ([5]; compound tested at 100 μM, substrate Leu-Asp-MCA, read-out: inhibitory effect against PgDPP11): > 30%; ligand efficiency (LE) ([5]; roughly calculated as LE = 1.37pIC50/HA): 0.346; Ki ([13]; SmDPP7, Cheng-Prusoff equation, 100 µM Met-Leu-MCA): 36.6 ± 1.3 µM; remaining activity at 100 µM ([13]; SmDPP7, inhibitor and synthetic substrate (Met-Leu-MCA) 100 µM, 100% = activity without inhibitor): 72.8 ± 0.7%; inhibition at 1000 µM ([14]; P. gingivalis W83, at 1 mM, read-out: maximal percent inhibition of growth): 68%
3 | NC(=O)c1ccc(SCC(=O)O)c([N+](=O)[O-])c1 [SH-5_3, 2-(4-carbamoyl-2-nitrophenyl)sulfanylacetic acid] | – | – | significant but relatively weak inhibitory effect | – | – | – | – | – | – | – | IC50 ([5]; PgDPP11, dose-response 15.6-1000 μM, 100 µM Leu-Asp-MCA): ~1070 µM

Source: PMC6753110, “Fragment-based discovery of the first nonpeptidyl inhibitor of an S46 family peptidase” (Scientific Reports, 2019)
